According to patent publication EP0596449A2, “Serotonin receptor antagonists for treating myocardial ischemia” (E.R. SQUIBB & SONS, INC., priority 1992, dated 1994):
Marks after values point to notes of the source that are not given here.

Tests used:
[1] = system: globally ischemic, isolated rat hearts; test: Effect of 5HT, alone or with 5HT2 antagonist, on time to contracture and pre-ischemic function in isolated rat hearts; settings: for Coronary Flow / HR / LVDP: 30 μM 5HT + 3 μM Ketanserin, pre-ischemic; for effect on the pro-ischemic effect of 5HT (time to contracture): 30 µM 5HT plus antagonist, both given 10 minutes before ischemia, Figure 3
Method: To determine the effect of serotonin receptor agonists and antagonists, male Sprague-Dawley rats (450-550 g) were prepared as described below. The rats were anesthetized using 100 mg/kg sodium pentobarbital (i.p.). They were intubated and then treated with i.v. heparin (1000 U/kg). While being mechanically ventilated, their hearts were perfused in situ via retrograde cannulation of the aorta. […] A water-filled latex balloon attached to a metal cannula was then inserted into the left ventricle and connected to a Statham pressure transducer for measurement of left ventricular pressure. […] Pre-ischemia or pre-drug function, heart rate and coronary flow (extracorporeal electromagnetic flow probe) were then measured. Left ventricular developed pressure (LVDP) was calculated from the difference between left ventricular peak systolic pressure and EDP. Cardiac temperature was maintained throughout the experiment by submerging the hearts in 37 ° C buffer which was allowed to accumulate in a stoppered, heated chamber. In another series of hearts, the effect of 5HT on the severity of ischemia was determined. […] Vehicle (0.1% DMSO) given 10 minutes before ischemia (n = 5). The hearts were subjected to global ischemia as described above and time to contracture determined. Reperfusion function and LDH release were not determined in this group.

[2] = system: globally ischemic rat hearts; test: Global ischemia (25 min) and reperfusion (30 min) in isolated perfused rat hearts, 5HT2 antagonists
Method: To determine the effect of serotonin receptor agonists and antagonists, male Sprague-Dawley rats (450-550 g) were prepared as described below. The rats were anesthetized using 100 mg/kg sodium pentobarbital (i.p.). They were intubated and then treated with i.v. heparin (1000 U/kg). While being mechanically ventilated, their hearts were perfused in situ via retrograde cannulation of the aorta. The hearts were then excised and […] moved to a Langendorff apparatus where they were perfused with Krebs-henseleit bicarbonate buffer solution ((mM): 112 NaCI, 25 NaHC03, 5 KCI, 1.2 MgS04, 1 KH2P04, 1.25 CaC12, 2 pyruvate and 11.5 dextrose bubbled with 95% 02 - 5% C02) at a constant perfusion pressure (85 mm Hg). A water-filled latex balloon attached to a metal cannula was then inserted into the left ventricle and connected to a Statham pressure transducer for measurement of left ventricular pressure. The hearts were allowed to equilibrate for 15 min, at which time end diastolic pressure (EDP) was adjusted to 5 mm Hg and this balloon volume was maintained for the duration of the experiment. Pre-ischemia or pre-drug function, heart rate and coronary flow (extracorporeal electromagnetic flow probe) were then measured. Left ventricular developed pressure (LVDP) was calculated from the difference between left ventricular peak systolic pressure and EDP. Cardiac temperature was maintained throughout the experiment by submerging the hearts in 37 ° C buffer which was allowed to accumulate in a stoppered, heated chamber.
The model of global ischemia in isolated rat hearts was designed such that any protective effects observed are generally due to a direct cardioprotective effect and not to effects on cornonary or peripheral vascular tone. Also, because the hearts are perfused with an oxygenated buffer solution, platelets or the normal components of an inflammatory response are probably not important mediators of the ischemic/reperfusion injury observed in this model. […] Agents which exert their protective effects either through their effects on the peripheral or coronary vasculature such as nitrates or agents which act on blood or act on some component of the inflammatory response such as thromboxane A2 receptor antagonists are generally ineffective in this model.
The hearts were divided into the following groups: 1. Vehicle (0.1% DMSO) treatment beginning 10 minutes before the onset of ischemia (n = 8). 2. 0.3-10 µM ketanserin treatment beginning 10 minutes before the onset of ischemia (n = 4-5 per group). 3. 10 µM ketanserin given only during reperfusion (n = 4). 4. 0.1-10 µM cinanserin treatment beginning 10 minutes before global ischemia (n = 4-10). 5. 1-10 µM LY 53857 treatment beginning 10 minutes before the onset of ischemia (n = 4 per group). After 10 minutes of vehicle or drug pretreatment, the hearts were subjected to 25 minutes of total global ischemia which was initiated by shutting off the perfusate flow. Reperfusion was begun (without drug except in the case of group 3 above) and allowed to continue for 30 minutes. At this time, final measurements of EDP, LVDP and coronary flow were obtained. Cumulative LDH relase was measured in the reperfusate and was used as the index of cellular and membrane viability. In all hearts, the time to contracture during ischemia was measured and used as an index of cardioprotection during ischemia. Time to contracture is defined as the time (minutes) necessary for the first 5 mm Hg increase in EDP to occur during global ischemia. The data were expressed as the percent change in time to contracture from vehicle.

[3] = 0.3 µM, 30 Min Post-Reperfusion
[4] = 0.3 µM, Pre-Ischemia, Post-Drug
[5] = 3 µM (Reper), given only during reperfusion, 30 Min Post-Reperfusion
[6] = 3 µM (Reper), given only during reperfusion, Pre-Ischemia, Post-Drug
[7] = 3 µM (Reper), given only during reperfusion, Pre-Ischemia, Pre-Drug

Which “Coronary Flow” value ([1]; Post-Drug) does the source give for O=C(c1ccc(F)cc1)C1CCN(CCn2c(=O)[nH]c3ccccc3c2=O)CC1 [Ketanserin, ketanserin] here?
The value was 18 ± 1 mL/min/g.

What about the HR ([1]; Post-Drug) of the same compound?
The HR was 335±17^a beats/min.

And the LVDP ([1]; Post-Drug)?
The LVDP was 130±2 mmHg.

And the “Coronary Flow” value ([1]; Pre-Drug)?
The value was 18 ± 2 mL/min/g.

What about the HR ([1]; Pre-Drug) of the same compound?
Its HR is 270±16 beats/min.

And the LVDP ([1]; Pre-Drug)?
The LVDP was 141±4 mmHg.

What about the “effect on the pro-ischemic effect of 5HT (time to contracture)” value [1] of the same compound?
The value was “abolished the pro-ischemic effect of serotonin”.

And the “effect on the pro-ischemic effect of 5HT (time to contracture)” value ([1]; listed as ketanserin)?
Its value is “completely abolished this pro-ischemic effect”.

What about the “Coronary Flow” value [2, 3] of the same compound?
Its value is 13±2^a mL/min/g.

What about the HR [2, 3] of the same compound?
The HR was 266±18^a beats/min.

What about the LVDP [2, 3] of the same compound?
Its LVDP is 20±5^a mmHg.

And the “Coronary Flow” value [2, 4]?
Its value is 16 ± 2 mL/min/g.

And the HR [2, 4]?
The HR was 275±6 beats/min.

What about the LVDP [2, 4] of the same compound?
Its LVDP is 141±10 mmHg.

And the “Coronary Flow” value ([2]; 0.3 µM, Pre-Ischemia, Pre-Drug)?
The value was 20 ± 2 mL/min/g.

And the HR ([2]; 0.3 µM, Pre-Ischemia, Pre-Drug)?
The HR was 291±2 beats/min.

What about the LVDP ([2]; 0.3 µM, Pre-Ischemia, Pre-Drug) of the same compound?
Its LVDP is 146±5 mmHg.

What about the “Coronary Flow” value ([2]; 1 µM, 30 Min Post-Reperfusion) of the same compound?
The value was 10±1^a mL/min/g.

And the HR ([2]; 1 µM, 30 Min Post-Reperfusion)?
The HR was 243±35^a beats/min.

What about the LVDP ([2]; 1 µM, 30 Min Post-Reperfusion) of the same compound?
Its LVDP is 29±5^a mmHg.

What about the “Coronary Flow” value ([2]; 1 µM, Pre-Ischemia, Post-Drug) of the same compound?
Its value is 15 ± 1 mL/min/g.

And the HR ([2]; 1 µM, Pre-Ischemia, Post-Drug)?
The HR was 272±11 beats/min.

What about the LVDP ([2]; 1 µM, Pre-Ischemia, Post-Drug) of the same compound?
Its LVDP is 128±4 mmHg.

What about the “Coronary Flow” value ([2]; 1 µM, Pre-Ischemia, Pre-Drug) of the same compound?
Its value is 19 ± 1 mL/min/g.

What about the HR ([2]; 1 µM, Pre-Ischemia, Pre-Drug) of the same compound?
Its HR is 311±16 beats/min.

What about the LVDP ([2]; 1 µM, Pre-Ischemia, Pre-Drug) of the same compound?
The LVDP was 130±6 mmHg.

And the “Coronary Flow” value [2, 5]?
The value was 14±1^a mL/min/g.

What about the HR [2, 5] of the same compound?
The HR was 196±14^a,b beats/min.

And the LVDP [2, 5]?
The LVDP was 33±6^a mmHg.

What about the “Coronary Flow” value [2, 6] of the same compound?
The value was 17 ± 2 mL/min/g.

What about the HR [2, 6] of the same compound?
Its HR is 285±11 beats/min.

And the LVDP [2, 6]?
Its LVDP is 130±5 mmHg.

What about the “Coronary Flow” value [2, 7] of the same compound?
Its value is 19 ± 1 mL/min/g.

And the HR [2, 7]?
Its HR is 292±15 beats/min.

And the LVDP [2, 7]?
Its LVDP is 134±4 mmHg.

And the “Coronary Flow” value ([2]; 3 µM, 30 Min Post-Reperfusion)?
The value was 13±1^a mL/min/g.

What about the HR ([2]; 3 µM, 30 Min Post-Reperfusion) of the same compound?
Its HR is 246±22^a beats/min.

What about the LVDP ([2]; 3 µM, 30 Min Post-Reperfusion) of the same compound?
The LVDP was 53±7^a,b mmHg.

And the “Coronary Flow” value ([2]; 3 µM, Pre-Ischemia, Post-Drug)?
The value was 15 ± 1 mL/min/g.

And the HR ([2]; 3 µM, Pre-Ischemia, Post-Drug)?
The HR was 244±16^a beats/min.

What about the LVDP ([2]; 3 µM, Pre-Ischemia, Post-Drug) of the same compound?
The LVDP was 127±9 mmHg.

And the “Coronary Flow” value ([2]; 3 µM, Pre-Ischemia, Pre-Drug)?
Its value is 19 ± 1 mL/min/g.

And the HR ([2]; 3 µM, Pre-Ischemia, Pre-Drug)?
Its HR is 310±13 beats/min.

What about the LVDP ([2]; 3 µM, Pre-Ischemia, Pre-Drug) of the same compound?
Its LVDP is 128±8 mmHg.

And the “Coronary Flow” value ([2]; 10 µM, 30 Min Post-Reperfusion)?
The value was 13±2^a mL/min/g.

What about the HR ([2]; 10 µM, 30 Min Post-Reperfusion) of the same compound?
The HR was 220±22^a beats/min.

And the LVDP ([2]; 10 µM, 30 Min Post-Reperfusion)?
The LVDP was 66±4^a,b mmHg.

And the “Coronary Flow” value ([2]; 10 µM, Pre-Ischemia, Post-Drug)?
The value was 14 ± 2 mL/min/g.

What about the HR ([2]; 10 µM, Pre-Ischemia, Post-Drug) of the same compound?
The HR was 196±19^a,b beats/min.

What about the LVDP ([2]; 10 µM, Pre-Ischemia, Post-Drug) of the same compound?
The LVDP was 128±5 mmHg.

What about the “Coronary Flow” value ([2]; 10 µM, Pre-Ischemia, Pre-Drug) of the same compound?
Its value is 19 ± 1 mL/min/g.

What about the HR ([2]; 10 µM, Pre-Ischemia, Pre-Drug) of the same compound?
The HR was 290±6 beats/min.

And the LVDP ([2]; 10 µM, Pre-Ischemia, Pre-Drug)?
The LVDP was 135±5 mmHg.

And the EC25 ([2]; Rattus norvegicus, drug given 10 minutes before global ischemia, read-out: EC25 (concentration which increased the time to contracture 25% above vehicle group values))?
Its EC25 is 5.5 µM.

What about the “cumulative LDH release during reperfusion” value ([2]; given only during reperfusion (Reper)) of the same compound?
Its value is “did not cause a reduction in LDH release”.

What about the “protective effect for any variable measured” value ([2]; given only during reperfusion at 3 µM) of the same compound?
The value was “no protective effect”.

What about the “reperfusion LDH release” value ([2]; only at the 10 µM concentration, Figure 2B) of the same compound?
Its value is “significantly reduced LDH relase”.
